We go through three compounds from publication PMC4900628, “Critical Evaluation of P2X7 Receptor Antagonists in Selected Seizure Models” (PLoS ONE, 2016).

The term IC50 denotes the concentration that gives 50% inhibition.

Counter-ions that a name gives are not always drawn.

One test addresses T1, rat P2X7R (Rattus norvegicus, UniProt Q64663).
T1 construct: expressed in transfected cells; host or cells: HEK293 Flp-In T-REx (HEKrP2X7), tetracycline-induced
T1 sequence (Q64663 1-595): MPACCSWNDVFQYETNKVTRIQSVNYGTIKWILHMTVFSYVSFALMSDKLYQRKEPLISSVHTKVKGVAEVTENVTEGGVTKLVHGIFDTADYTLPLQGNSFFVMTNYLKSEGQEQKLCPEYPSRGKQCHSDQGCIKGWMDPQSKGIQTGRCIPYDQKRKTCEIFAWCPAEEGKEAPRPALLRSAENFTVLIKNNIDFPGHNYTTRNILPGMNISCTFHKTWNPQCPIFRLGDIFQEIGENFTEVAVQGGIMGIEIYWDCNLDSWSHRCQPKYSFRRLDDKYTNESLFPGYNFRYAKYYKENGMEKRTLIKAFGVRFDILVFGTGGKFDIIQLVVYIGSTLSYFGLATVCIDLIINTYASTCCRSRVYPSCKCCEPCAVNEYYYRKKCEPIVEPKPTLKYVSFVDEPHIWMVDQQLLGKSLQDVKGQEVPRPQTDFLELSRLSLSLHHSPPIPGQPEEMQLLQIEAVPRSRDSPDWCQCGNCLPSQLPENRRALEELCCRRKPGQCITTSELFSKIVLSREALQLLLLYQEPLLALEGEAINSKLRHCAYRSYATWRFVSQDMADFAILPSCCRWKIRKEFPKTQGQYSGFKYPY
Put plainly: fluorometric Ca2+ assay (ATP-induced [Ca2+]i response) in HEKrP2X7 cells. It is filed as cell-based. To be noted: HEKrP2X7 cells, fluo-4, 1 mM ATP; read-out: Potency IC50 ± SEM, Rat P2X7R. On the procedure: (§1) Cells were grown in a humidified incubator at 37°C in an atmosphere supplemented with 5% CO2. […] HEK293mP2X7 were cultured in DMEM under similar conditions as described above, but containing 100 μg/ml zeocin (Invitrogen). […] Expression of the transgene was induced by supplementing the medium with 1 μg/ml tetracycline (Sigma-Aldrich, Taufkirchen, Germany) 24 h prior to the experiments. All fluorometric Ca^2+ assays in cell suspensions were performed in 384-microwell plates (Corning, No. 3655, Lowell, MA, USA) with a fluorescence-imaging microplate reader (POLARstar Omega, BMG Labtech, Offenburg, Germany) (for details, see [61, 68]). […] Microwell plates were repetitively scanned every 16 s in the fast scanning mode of the device. […] Data were normalized to the baseline values before ATP application (F/F0). […] ATP-solution was freshly prepared in Mg^2+-free HBS solution and adjusted to pH 7.4. Aliquots of stock solutions were stored at -20°C and freshly diluted with the appropriate HBS solution. […] Results are expressed as mean ± SEM. […] In the PTZ-T, the number of animals in the group with clonic seizures and the latency time were analysed using Fisher's exact probability test and the Mann-Whitney rank sum test, respectively. For multiple comparisons of the latency time a one-way ANOVA with the Holm-Sidak post hoc test was used. The influence of AFC on the plasma and brain concentrations of the antiepileptic drugs was statistical compared using the same procedure. In the PTZ-kindling model, the mean seizure stage within a group was calculated in relation to the number of PTZ-injections. Statistical comparison between vehicle- and compound-treated groups in this model was performed with two-way repeated measures ANOVA, followed by the Holm-Sidak post hoc test. […] In fully kindled rats, the calculated mean seizure stage within a group after vehicle- and compound-treatment were compared using a paired t-test. P < 0.05 was the accepted minimum level of significance.

In a further test the target is T2, mouse P2X7R (Mus musculus, UniProt Q9Z1M0).
T2 construct: expressed in transfected cells
T2 sequence (Q9Z1M0 1-595): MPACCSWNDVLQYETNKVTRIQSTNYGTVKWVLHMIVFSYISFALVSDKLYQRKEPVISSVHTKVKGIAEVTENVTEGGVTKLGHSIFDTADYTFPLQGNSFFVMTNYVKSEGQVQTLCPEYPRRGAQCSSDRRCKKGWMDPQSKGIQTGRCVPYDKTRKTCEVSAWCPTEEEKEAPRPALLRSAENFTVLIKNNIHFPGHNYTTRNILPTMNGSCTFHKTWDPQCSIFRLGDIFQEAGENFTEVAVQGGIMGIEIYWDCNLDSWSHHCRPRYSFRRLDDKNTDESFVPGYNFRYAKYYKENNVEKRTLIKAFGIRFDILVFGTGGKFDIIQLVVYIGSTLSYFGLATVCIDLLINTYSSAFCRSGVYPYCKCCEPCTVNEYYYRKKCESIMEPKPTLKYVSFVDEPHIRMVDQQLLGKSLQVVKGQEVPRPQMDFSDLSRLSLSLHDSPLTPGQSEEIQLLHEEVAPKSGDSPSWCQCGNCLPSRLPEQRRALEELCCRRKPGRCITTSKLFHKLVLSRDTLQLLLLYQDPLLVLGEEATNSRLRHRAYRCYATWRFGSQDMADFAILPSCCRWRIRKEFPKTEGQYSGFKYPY
Put plainly: fluorometric Ca2+ assay (ATP-induced [Ca2+]i response) in HEKmP2X7 cells. It is filed as cell-based. To be noted: fluo-4, 1 mM ATP, read-out: Potency IC50 ± SEM, Mouse P2X7R. On the procedure:
as §1

A further test deals with T3, human P2X7R (Homo sapiens, UniProt Q99572).
T3 construct: expressed in transfected cells
T3 sequence (Q99572 1-595): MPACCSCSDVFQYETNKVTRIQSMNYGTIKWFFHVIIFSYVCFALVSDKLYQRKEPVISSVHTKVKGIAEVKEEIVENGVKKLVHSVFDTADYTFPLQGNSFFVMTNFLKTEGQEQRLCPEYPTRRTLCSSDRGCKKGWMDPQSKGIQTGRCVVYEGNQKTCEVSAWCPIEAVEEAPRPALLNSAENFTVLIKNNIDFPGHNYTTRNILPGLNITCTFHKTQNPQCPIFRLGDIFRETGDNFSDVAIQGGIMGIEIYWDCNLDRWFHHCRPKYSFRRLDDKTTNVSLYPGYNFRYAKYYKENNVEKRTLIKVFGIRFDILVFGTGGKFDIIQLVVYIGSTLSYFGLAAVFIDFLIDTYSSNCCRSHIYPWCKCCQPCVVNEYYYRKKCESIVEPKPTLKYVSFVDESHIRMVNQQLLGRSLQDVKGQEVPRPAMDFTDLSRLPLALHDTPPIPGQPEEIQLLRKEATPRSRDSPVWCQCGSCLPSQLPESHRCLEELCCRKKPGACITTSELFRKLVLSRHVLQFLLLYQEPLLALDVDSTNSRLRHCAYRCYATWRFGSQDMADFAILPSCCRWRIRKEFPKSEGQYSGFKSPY
Put plainly: fluorometric Ca2+ assay (ATP-induced [Ca2+]i response) in HEKhP2X7 cells. To be noted: fluo-4, 1 mM ATP, read-out: Potency IC50 ± SEM, Human P2X7R. It is filed as cell-based. On the procedure:
as §1

The test system of test [1] is PTZ-induced seizures in fully PTZ-kindled rats. Put plainly: PTZ-induced seizures in fully kindled rats. It is filed as in vivo. To be noted: fully kindled rats; 100 mg/kg i.p.; pre-drug (vehicle) value 4.0. From the text: Results were expressed as mean seizure stages of a tested group in which the seizure behaviour after vehicle treatment (vehicle seizure stage) and after compound treatment (compound seizure stage), examined 3-4 days later, was matched. For comparison, the effectiveness of two antiepileptic drugs (carbamazepine and valproate) was also investigated. […] Chemicals, Toronto, Canada) was slowly added. The pH was adjusted with 1N NaOH (similar amount of NaOH as HCl), all with continuous stirring. […] The drug solutions or suspensions were prepared immediately before use; all doses refer to the salts. Animals in the control group received equivalent volumes of the vehicle (in mice always 10 ml/kg, in rats 1 ml/kg [JNJ], 3 ml/kg [AFC] or 4 ml/kg [BBG, TIIAS], depending on the solubility of the different compounds). Doses and peak time effects were selected on the basis of effective doses from corresponding in vivo studies in the literature: BBG (e.g.), tanshinone IIA (e.g.) and from manufacturer's experimental data: AFC, JNJ (see, [80]). Data were analysed using SigmaPlot (vers. 12.0, Systat Software, Erkrath, Germany) and SPSS (IBM SPSS Statistics 20, […], Germany), respectively. Results are expressed as mean ± SEM. […] In the MES-T, the current intensity inducing tonic hindlimb extensions in 50% of the mice (CC50 values with confidence limits for 95% probability) and the statistical significance was calculated using Probit analysis (SPSS). […] In the PTZ-T, the number of animals in the group with clonic seizures and the latency time were analysed using Fisher's exact probability test and the Mann-Whitney rank sum test, respectively. For multiple comparisons of the latency time a one-way ANOVA with the Holm-Sidak post hoc test was used. The influence of AFC on the plasma and brain concentrations of the antiepileptic drugs was statistical compared using the same procedure. In the PTZ-kindling model, the mean seizure stage within a group was calculated in relation to the number of PTZ-injections. Statistical comparison between vehicle- and compound-treated groups in this model was performed with two-way repeated measures ANOVA, followed by the Holm-Sidak post hoc test. The mean number of PTZ-injections needed to produce the first generalized seizure (≥ stage 3 convulsions) in the vehicle- versus compound-treated groups was statistically compared using a Mann-Whitney rank sum test. In fully kindled rats, the calculated mean seizure stage within a group after vehicle- and compound-treatment were compared using a paired t-test. P < 0.05 was the accepted minimum level of significance.

As for `Clc1cccc(-c2nnnn2Cc2cccnc2)c1Cl` [A-438079, 3-[[5-(2,3-dichlorophenyl)-1H-tetrazol-1yl]methyl]pyridine hydrochloride hydrate], the figures for the IC50 at rat P2X7R, at mouse P2X7R and on human P2X7R were 0.22 ± 0.01 µM, 0.28 ± 0.02 µM and 0.07 ± 0.009 µM, respectively.

In the case of `O=C(CC12CC3CC(CC(C3)C1)C2)Nc1cccc2nc(NCCNCCO)ccc12` [AZ-10606120, N-[2-[[2-[(2-hydroxyethyl)amino]ethyl]amino]-5-quinolinyl]-2-tricyclo[3.3.1.13,7]dec-1-ylacetamide dihydrochloride], the figures for the IC50 at rat P2X7R and on mouse P2X7R were 0.02 ± 0.002 µM and 0.12 ± 0.005 µM, respectively.

Consider `CCCC(CCC)C(=O)O` [Ca-valproate, Ca-valproate dihydrate], for which the “mean seizure stage, post-drug” value in test [1] was 1.1.
